Experimental data taken from PubChem BioAssay AID1963869 (Molecular Pharmacology Branch, DTP, NCI, 2024).

Tested on: KRAS patient-derived spheroids with HUVEC/MSC, viability
Assay: Anticancer human tumor 323965-272-R-J2-PDC patient-derived pancreatic carcinoma cell line growth inhibition [KRAS2]
Details: for IC50: curve of first compound; for viability, T/C: stronger effect = lower value
In short: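 Combination screen of spheroid viability in tumor-cell co-cultures with endothelial (HUVEC) and mesenchymal stem cell stroma. Each agent was tested in half-log dilutions, topping at clinical Cmax or at 10 microM without a known Cmax.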

[1] = second compound 0.1 µM, first compound 0.0316 µM
[2] = second compound 0.1 µM, first compound 0.1 µM
[3] = second compound 0.1 µM, first compound 0.316 µM
[4] = second compound 0.1 µM, first compound 1 µM
[5] = second compound 0.1 µM, first compound 3.16 µM
[6] = second compound 0.1 µM, first compound 10 µM
[7] = second compound 0.316 µM, first compound 0.0316 µM
[8] = second compound 0.316 µM, first compound 0.1 µM
[9] = second compound 0.316 µM, first compound 0.316 µM
[10] = second compound 0.316 µM, first compound 1 µM
[11] = second compound 0.316 µM, first compound 3.16 µM
[12] = second compound 0.316 µM, first compound 10 µM
[13] = second compound 1 µM, first compound 0.0316 µM
[14] = second compound 1 µM, first compound 0.1 µM
[15] = second compound 1 µM, first compound 0.316 µM
[16] = second compound 1 µM, first compound 1 µM
[17] = second compound 1 µM, first compound 3.16 µM
[18] = second compound 1 µM, first compound 10 µM
[19] = second compound 3.16 µM, first compound 0.0316 µM
[20] = second compound 3.16 µM, first compound 0.1 µM
[21] = second compound 3.16 µM, first compound 0.316 µM
[22] = second compound 3.16 µM, first compound 1 µM
[23] = second compound 3.16 µM, first compound 3.16 µM
[24] = second compound 3.16 µM, first compound 10 µM
[25] = second compound 10 µM, first compound 0.0316 µM
[26] = second compound 10 µM, first compound 0.1 µM
[27] = second compound 10 µM, first compound 0.316 µM
[28] = second compound 10 µM, first compound 1 µM
[29] = second compound 10 µM, first compound 3.16 µM
[30] = second compound 10 µM, first compound 10 µM
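Further: spheroids exposed to agents for 7 days.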
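Wherever viability, T/C is given: 100% = DMSO vehicle control viability.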

| SMILES | IC50 (second compound 0.1 µM) | IC50 (second compound 0.316 µM) | IC50 (second compound 1 µM) | IC50 (second compound 3.16 µM) | IC50 (second compound 10 µM) | viability, T/C [1] | viability, T/C [2] | viability, T/C [3] | viability, T/C [4] | viability, T/C [5] | viability, T/C [6] | viability, T/C [7] | viability, T/C [8] | viability, T/C [9] | viability, T/C [10] | viability, T/C [11] | viability, T/C [12] | viability, T/C [13] | viability, T/C [14] | viability, T/C [15] | other results |
| --- | --- | --- | --- | --- | --- | --- | --- | --- | --- | --- | --- | --- | --- | --- | --- | --- | --- | --- | --- | --- | --- |
| COC(=O)c1ccc2c(C(=Nc3ccc(N(C)C(=O)CN4CCN(C)CC4)cc3)c3ccccc3)c(O)[nH]c2c1 + CNCc1ccccc1-c1csc(C(C)Nc2nc(C)nc3cc(OC)c(OC)cc23)c1 | > 10 µM | > 10 µM | > 10 µM | > 10 µM | < 0.0316 µM | 94.9% | 90% | 102% | 94.2% | 95.7% | 89.2% | 90.6% | 88.4% | 97% | 98.2% | 94.3% | 86.5% | 90.3% | 90.8% | 85.7% | viability, T/C [16]: 79.6%; viability, T/C [17]: 93.7%; viability, T/C [18]: 90.4%; viability, T/C [19]: 102%; viability, T/C [20]: 105%; viability, T/C [21]: 99.6%; viability, T/C [22]: 103%; viability, T/C [23]: 90%; viability, T/C [24]: 88.6%; viability, T/C [25]: 0.33%; viability, T/C [26]: 1.26%; viability, T/C [27]: 0.33%; viability, T/C [28]: 0.3%; viability, T/C [29]: 0.44%; viability, T/C [30]: 0.35% |
| COc1cc(Nc2ncc3c(n2)-c2ccc(Cl)cc2C(c2c(F)cccc2OC)=NC3)ccc1C(=O)O + CNCc1ccccc1-c1csc(C(C)Nc2nc(C)nc3cc(OC)c(OC)cc23)c1 | 0.128 µM | 0.0926 µM | 0.0964 µM | > 10 µM | < 0.0316 µM | 80.2% | 52.9% | 32% | 39.3% | 55.5% | 63.5% | 78.8% | 50.2% | 33.6% | 35.6% | 52.3% | 55.2% | 85.6% | 51% | 31.9% | viability, T/C [16]: 37.9%; viability, T/C [17]: 51.1%; viability, T/C [18]: 60%; viability, T/C [19]: 88.2%; viability, T/C [20]: 36.9%; viability, T/C [21]: 17.9%; viability, T/C [22]: 39.5%; viability, T/C [23]: 63.3%; viability, T/C [24]: 64.6%; viability, T/C [25]: 0.29%; viability, T/C [26]: 0.17%; viability, T/C [27]: 0.16%; viability, T/C [28]: 0.2%; viability, T/C [29]: 0.35%; viability, T/C [30]: 0.26% |
| O=C(c1cc(Cc2n[nH]c(=O)c3ccccc23)ccc1F)N1CCN(C(=O)C2CC2)CC1 + CNCc1ccccc1-c1csc(C(C)Nc2nc(C)nc3cc(OC)c(OC)cc23)c1 | > 10 µM | > 10 µM | > 10 µM | 8.84 µM | < 0.0316 µM | 98.7% | 93.1% | 97.8% | 93.6% | 89% | 57.1% | 94.9% | 91% | 98.4% | 89.7% | 86.2% | 51.5% | 92% | 93.5% | 84.5% | viability, T/C [16]: 86.3%; viability, T/C [17]: 83.3%; viability, T/C [18]: 52.9%; viability, T/C [19]: 102%; viability, T/C [20]: 102%; viability, T/C [21]: 96.4%; viability, T/C [22]: 98.8%; viability, T/C [23]: 92.5%; viability, T/C [24]: 44.8%; viability, T/C [25]: 6.59%; viability, T/C [26]: 0.4%; viability, T/C [27]: 2.23%; viability, T/C [28]: 0.39%; viability, T/C [29]: 0.34%; viability, T/C [30]: 0.82% |
